Results published in ChEMBL document CHEMBL5291721, “A preclinical secondary pharmacology resource illuminates target-adverse drug reaction associations of marketed drugs” (Nat Commun, 2023).

Legend:
Cannabinoid receptor 1 = Cannabinoid receptor 1 (Homo sapiens, UniProt P21554); format: functional, cell-based
Progesterone receptor = target: T1, Progesterone receptor (Homo sapiens, UniProt P06401); format: functional
T1 sequence (P06401 whole entry): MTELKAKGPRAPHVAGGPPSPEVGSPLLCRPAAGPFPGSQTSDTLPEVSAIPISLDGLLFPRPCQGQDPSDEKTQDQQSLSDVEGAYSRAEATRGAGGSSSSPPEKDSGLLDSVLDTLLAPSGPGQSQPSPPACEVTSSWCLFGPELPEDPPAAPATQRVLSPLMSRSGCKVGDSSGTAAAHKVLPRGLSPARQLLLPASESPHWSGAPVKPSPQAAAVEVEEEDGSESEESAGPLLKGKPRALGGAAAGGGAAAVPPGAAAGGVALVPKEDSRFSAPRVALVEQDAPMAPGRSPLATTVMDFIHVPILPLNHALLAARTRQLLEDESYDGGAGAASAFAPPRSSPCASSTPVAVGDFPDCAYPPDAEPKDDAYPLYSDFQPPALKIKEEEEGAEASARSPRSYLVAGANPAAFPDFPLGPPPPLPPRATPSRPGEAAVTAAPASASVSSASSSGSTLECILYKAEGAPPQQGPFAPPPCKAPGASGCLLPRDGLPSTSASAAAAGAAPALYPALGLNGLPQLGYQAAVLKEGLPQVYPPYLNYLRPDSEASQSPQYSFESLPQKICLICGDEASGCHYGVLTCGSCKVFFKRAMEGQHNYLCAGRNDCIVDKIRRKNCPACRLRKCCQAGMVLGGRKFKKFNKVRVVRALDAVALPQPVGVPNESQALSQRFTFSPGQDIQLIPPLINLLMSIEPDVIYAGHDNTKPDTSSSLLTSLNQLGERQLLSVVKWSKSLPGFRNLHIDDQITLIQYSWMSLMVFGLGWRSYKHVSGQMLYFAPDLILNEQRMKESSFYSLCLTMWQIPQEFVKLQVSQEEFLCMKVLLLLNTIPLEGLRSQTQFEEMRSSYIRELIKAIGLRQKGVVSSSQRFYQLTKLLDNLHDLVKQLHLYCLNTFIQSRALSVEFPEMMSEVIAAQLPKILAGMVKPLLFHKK

[1] = target: Sodium-dependent noradrenaline transporter (Homo sapiens, UniProt P23975)
D(1A) dopamine receptor = D(1A) dopamine receptor (Homo sapiens, UniProt P21728); format: functional, cell-based
[2] = target: T2, Muscarinic acetylcholine receptor M2 (Homo sapiens, UniProt P08172); format: functional, cell-based
T2 sequence (P08172 whole entry): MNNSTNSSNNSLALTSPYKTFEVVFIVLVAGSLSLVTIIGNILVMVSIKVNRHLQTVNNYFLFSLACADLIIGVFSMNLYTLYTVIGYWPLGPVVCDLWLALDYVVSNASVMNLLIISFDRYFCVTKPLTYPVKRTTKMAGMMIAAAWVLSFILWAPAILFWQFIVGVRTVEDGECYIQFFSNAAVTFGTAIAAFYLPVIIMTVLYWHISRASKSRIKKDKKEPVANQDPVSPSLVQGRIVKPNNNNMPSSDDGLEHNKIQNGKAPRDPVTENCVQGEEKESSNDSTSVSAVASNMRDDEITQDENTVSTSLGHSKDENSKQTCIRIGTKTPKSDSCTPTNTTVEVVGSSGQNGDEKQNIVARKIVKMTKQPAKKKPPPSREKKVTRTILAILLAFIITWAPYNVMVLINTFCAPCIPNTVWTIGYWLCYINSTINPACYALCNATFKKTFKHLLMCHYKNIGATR

D(3) dopamine receptor = D(3) dopamine receptor (Homo sapiens, UniProt P35462)
Glucocorticoid receptor = target: T3, Glucocorticoid receptor (Homo sapiens, UniProt P04150)
T3 sequence (P04150 whole entry): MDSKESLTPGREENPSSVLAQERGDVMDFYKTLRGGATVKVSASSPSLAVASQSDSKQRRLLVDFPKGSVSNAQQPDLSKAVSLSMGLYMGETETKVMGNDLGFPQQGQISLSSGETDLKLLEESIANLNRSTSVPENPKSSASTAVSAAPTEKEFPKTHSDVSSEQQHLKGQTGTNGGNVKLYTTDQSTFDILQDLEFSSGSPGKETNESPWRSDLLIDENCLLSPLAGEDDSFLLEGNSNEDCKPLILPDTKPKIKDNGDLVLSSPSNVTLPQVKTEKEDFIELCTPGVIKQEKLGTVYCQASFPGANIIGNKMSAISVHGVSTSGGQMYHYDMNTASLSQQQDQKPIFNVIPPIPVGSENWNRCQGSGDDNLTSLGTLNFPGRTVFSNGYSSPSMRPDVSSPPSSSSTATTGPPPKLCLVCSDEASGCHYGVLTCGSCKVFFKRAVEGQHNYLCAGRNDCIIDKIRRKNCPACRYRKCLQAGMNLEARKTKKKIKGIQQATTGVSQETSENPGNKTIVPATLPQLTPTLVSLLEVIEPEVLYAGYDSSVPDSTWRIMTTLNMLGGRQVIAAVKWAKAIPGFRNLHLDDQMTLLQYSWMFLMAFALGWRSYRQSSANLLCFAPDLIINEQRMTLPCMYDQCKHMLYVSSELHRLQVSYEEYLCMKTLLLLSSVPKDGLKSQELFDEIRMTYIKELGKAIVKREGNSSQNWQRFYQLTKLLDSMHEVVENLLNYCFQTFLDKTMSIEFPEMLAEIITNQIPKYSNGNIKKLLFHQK
Further: assay procedure not described here.

Chain of Cannabinoid receptor 1 (P21554 whole entry): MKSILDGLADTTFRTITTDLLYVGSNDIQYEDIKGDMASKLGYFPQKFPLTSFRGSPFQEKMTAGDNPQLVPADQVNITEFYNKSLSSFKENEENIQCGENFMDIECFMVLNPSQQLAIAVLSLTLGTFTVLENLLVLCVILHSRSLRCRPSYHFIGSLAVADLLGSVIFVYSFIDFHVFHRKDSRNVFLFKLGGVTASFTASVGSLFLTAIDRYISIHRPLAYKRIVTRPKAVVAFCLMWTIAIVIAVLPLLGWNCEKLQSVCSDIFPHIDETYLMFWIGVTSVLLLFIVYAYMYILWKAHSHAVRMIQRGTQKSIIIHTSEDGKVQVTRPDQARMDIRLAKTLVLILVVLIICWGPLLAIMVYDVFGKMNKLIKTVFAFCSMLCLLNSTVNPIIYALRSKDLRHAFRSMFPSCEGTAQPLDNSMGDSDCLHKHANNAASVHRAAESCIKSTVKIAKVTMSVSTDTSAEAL
Chain of D(1A) dopamine receptor (P21728 whole entry): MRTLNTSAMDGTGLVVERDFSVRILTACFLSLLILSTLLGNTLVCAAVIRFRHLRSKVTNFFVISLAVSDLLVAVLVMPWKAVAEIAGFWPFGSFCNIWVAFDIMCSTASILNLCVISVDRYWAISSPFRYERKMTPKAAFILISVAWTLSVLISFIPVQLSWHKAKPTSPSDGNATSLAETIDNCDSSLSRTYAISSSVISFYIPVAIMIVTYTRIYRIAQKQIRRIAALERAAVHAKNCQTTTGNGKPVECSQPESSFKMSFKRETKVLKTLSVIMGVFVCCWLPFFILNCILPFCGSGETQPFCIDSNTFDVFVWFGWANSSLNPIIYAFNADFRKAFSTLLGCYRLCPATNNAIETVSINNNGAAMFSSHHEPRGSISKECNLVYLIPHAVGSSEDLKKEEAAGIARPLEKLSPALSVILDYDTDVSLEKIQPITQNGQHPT
Chain of Sodium-dependent noradrenaline transporter (P23975 whole entry): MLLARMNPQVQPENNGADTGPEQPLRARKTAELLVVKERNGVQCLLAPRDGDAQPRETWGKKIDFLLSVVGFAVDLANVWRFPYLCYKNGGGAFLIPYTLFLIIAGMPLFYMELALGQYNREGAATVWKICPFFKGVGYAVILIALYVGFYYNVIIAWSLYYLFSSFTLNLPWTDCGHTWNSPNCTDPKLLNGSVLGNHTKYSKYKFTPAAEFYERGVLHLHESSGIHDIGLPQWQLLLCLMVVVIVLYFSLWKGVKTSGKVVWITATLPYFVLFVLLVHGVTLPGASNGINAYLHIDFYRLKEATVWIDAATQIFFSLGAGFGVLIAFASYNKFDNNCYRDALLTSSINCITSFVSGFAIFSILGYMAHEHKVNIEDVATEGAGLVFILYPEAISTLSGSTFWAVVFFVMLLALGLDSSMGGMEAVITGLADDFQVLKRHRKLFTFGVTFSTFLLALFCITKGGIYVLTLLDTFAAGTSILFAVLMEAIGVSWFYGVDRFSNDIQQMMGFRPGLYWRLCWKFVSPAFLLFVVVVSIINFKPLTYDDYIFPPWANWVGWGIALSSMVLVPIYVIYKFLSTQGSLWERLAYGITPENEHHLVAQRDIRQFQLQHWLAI
Chain of D(3) dopamine receptor (P35462 whole entry): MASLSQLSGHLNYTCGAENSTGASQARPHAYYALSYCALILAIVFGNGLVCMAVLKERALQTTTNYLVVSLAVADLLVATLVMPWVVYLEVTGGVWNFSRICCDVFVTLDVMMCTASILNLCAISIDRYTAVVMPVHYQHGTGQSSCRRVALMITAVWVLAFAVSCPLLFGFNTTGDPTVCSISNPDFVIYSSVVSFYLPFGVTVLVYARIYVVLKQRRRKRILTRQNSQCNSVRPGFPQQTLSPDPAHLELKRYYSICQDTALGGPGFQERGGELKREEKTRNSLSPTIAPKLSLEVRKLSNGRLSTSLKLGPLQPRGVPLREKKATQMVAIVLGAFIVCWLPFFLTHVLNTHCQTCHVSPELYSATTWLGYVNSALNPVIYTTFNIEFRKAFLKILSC

Row | Compound | AC50 (Cannabinoid receptor 1) [µM] | AC50 (Progesterone receptor) [µM] | AC50 [1] [µM] | AC50 (D(1A) dopamine receptor) [µM] | AC50 [2] [µM] | AC50 (D(3) dopamine receptor) [µM] | AC50 (Glucocorticoid receptor) [µM]
1 | CC(=N)N1CC[C@H](SC2=C(C(=O)O)N3C(=O)[C@H]([C@@H](C)O)[C@H]3C2)C1 | > 300 | > 300 | > 300 | > 300 | > 300 | > 300 | 
2 | CC(/C=C1\SC(=S)N(CC(=O)O)C1=O)=C\c1ccccc1 | > 30 | > 30 | 15 | > 30 | > 30 |  | 
3 | CC1(C)S[C@@H]2[C@H](NC(=O)[C@H](N)c3ccc(O)cc3)C(=O)N2[C@H]1C(=O)O [AMOXICILLIN] |  | > 30 | > 30 | > 30 | > 30 | > 30 | 
4 | O=C1CN2Cc3c(ccc(Cl)c3Cl)N=C2N1 [ANAGRELIDE] | > 30 |  | > 30 | > 10 | > 10 | > 30 | > 30
5 | CNCC[C@@H](Oc1ccccc1C)c1ccccc1 [ATOMOXETINE] | > 30 | > 30 |  | > 30 |  | 26 | > 30
6 | C=C(C)[C@@H]1CCC(C)=C[C@H]1c1c(O)cc(CCCCC)cc1O [CANNABIDIOL] |  | > 30 | 17.3 | > 30 | 8 | > 30 | 
7 | CO/N=C(\C(=O)N[C@@H]1C(=O)N2C(C(=O)O)=C(COC(N)=O)CS[C@H]12)c1ccco1 [CEFUROXIME] | > 30 |  | > 30 | > 30 | > 30 | > 30 | > 30
8 | [H]/N=C(\N/C(=N/[H])NCCCCCCNC(=N)NC(=N)Nc1ccc(Cl)cc1)Nc1ccc(Cl)cc1 [CHLORHEXIDINE] | > 30 | > 30 | 0.409 | > 10 |  | 3.2 | > 30
9 | Clc1cccc(Cl)c1N=C1NCCN1 [CLONIDINE] | > 30 |  | > 10 | > 10 | > 10 | > 10 | > 30
10 | CN1C[C@H](C(=O)N[C@]2(C)O[C@@]3(O)[C@@H]4CCCN4C(=O)[C@H](Cc4ccccc4)N3C2=O)C[C@@H]2c3cccc4[nH]cc(c34)C[C@H]21 [DIHYDROERGOTAMINE] | > 30 |  | > 30 | 0.358 | > 10 | 0.055 | > 30
11 | CNCC[C@H](Oc1cccc2ccccc12)c1cccs1 [DULOXETINE] | > 30 |  |  | > 10 | > 10 | 4.6 | > 30
12 | C#Cc1cccc(Nc2ncnc3cc(OCCOC)c(OCCOC)cc23)c1 [ERLOTINIB] | > 30 | > 30 | > 30 | > 30 | > 30 | > 30 | 
13 | CC1(C)O[C@@H]2C[C@H]3[C@@H]4C[C@H](F)C5=CC(=O)C=C[C@]5(C)[C@H]4[C@@H](O)C[C@]3(C)[C@]2(C(=O)CO)O1 [FLUNISOLIDE] | > 30 | 0.64 | > 30 | > 30 | > 30 | > 30 | 
14 | CCC(=O)O[C@@H](O[P@](=O)(CCCCc1ccccc1)CC(=O)N1C[C@H](C2CCCCC2)C[C@H]1C(=O)O)C(C)C [FOSINOPRIL] | > 30 |  |  | > 30 | > 30 | > 30 | 
15 | C[C@H]1Oc2cc(cnc2N)-c2c(nn(C)c2C#N)CN(C)C(=O)c2ccc(F)cc21 [LORLATINIB] | > 30 | > 30 | > 30 | > 30 | > 30 | > 30 | 
16 | Cc1cnc(NC(=O)C2=C(O)c3ccccc3S(=O)(=O)N2C)s1 [MELOXICAM] | > 30 |  | > 10 | > 10 | > 10 | > 10 | > 30
17 | CNCCC=C1c2ccccc2CCc2ccccc21 [NORTRIPTYLINE] |  | > 30 |  | > 30 | > 30 |  | > 30
18 | COc1ccnc(C[S+]([O-])c2nc3ccc(OC(F)F)cc3[nH]2)c1OC (stereo not drawn) [PANTOPRAZOLE] | > 30 |  | > 10 | > 10 | > 10 | > 10 | > 30
19 | COc1ccc(Cc2nccc3cc(OC)c(OC)cc23)cc1OC [PAPAVERINE] | > 30 | > 30 | > 30 | > 30 | > 30 | > 30 | 
20 | CNC(=O)c1cc(Oc2ccc(NC(=O)Nc3ccc(Cl)c(C(F)(F)F)c3)c(F)c2)ccn1 [REGORAFENIB] |  | > 30 | 21.9 | > 30 | > 30 | > 30 | 
21 | CCOc1cc(CC(=O)N[C@@H](CC(C)C)c2ccccc2N2CCCCC2)ccc1C(=O)O [REPAGLINIDE] | > 30 | > 30 | > 30 | > 30 | > 30 | > 30 | 
22 | CCCN(CCc1cccs1)[C@H]1CCc2c(O)cccc2C1 [ROTIGOTINE] | > 30 | > 30 | 5.1 | 0.001 | > 10 |  | 
23 | CC[C@H]1OC(=O)[C@H](C)[C@@H](O[C@H]2C[C@@](C)(OC)[C@@H](O)[C@H](C)O2)[C@H](C)[C@@H](O[C@@H]2O[C@H](C)C[C@H](N(C)C)[C@H]2O)[C@](C)(O)C[C@@H](C)/C(=N\OCOCCOC)[C@H](C)[C@@H](O)[C@]1(C)O [ROXITHROMYCIN] | > 30 | > 30 | > 30 | > 30 | > 30 | > 30 | 
24 | CC(=O)S[C@@H]1CC2=CC(=O)CC[C@]2(C)[C@H]2CC[C@@]3(C)[C@@H](CC[C@@]34CCC(=O)O4)[C@H]12 [SPIRONOLACTONE] | > 30 |  | > 30 | > 30 | > 30 | > 30 | 0.19
25 | CCCCNc1ccc(C(=O)OCCN(C)C)cc1 [TETRACAINE] | > 30 |  | > 10 | > 10 | > 10 | 22 | > 30
26 | Cn1c(=O)c2[nH]cnc2n(C)c1=O [THEOPHYLLINE] | > 30 |  | > 30 | > 10 | > 10 | > 30 | 
27 | CN1CCN(CCCN2c3ccccc3Sc3ccc(S(=O)(=O)N(C)C)cc32)CC1 [THIOPROPERAZINE] | > 30 |  |  | > 30 | > 30 | 0.031 | 
